Earlier results in paper PMC12498288 (Frontiers in Immunology, 2025).

Tested on: SARS-CoV-2
Parameters: method as in PMID 38319178
Conditions: hospitalized COVID-19 patients with a similar CSS as in RESPIRE; cited from earlier work

CC(C)C(=O)OC[C@H]1O[C@@H](n2ccc(NO)nc2=O)[C@H](O)[C@@H]1O [molnupiravir]
viral load reduction: no viral load reduction was observed
